B1: rJAM-C: polypeptide obtained by linking the Fc region of human IgG1 to the C-terminus of the extracellular domain (Met 1-Asn 241) of human JAM-C; Sino Biological (protein)
chain: EAVNLKSSNRNPVVHEFESVELSCIITDSQTSDPRIEWKKIQDGQTTYVYFDNKIQGDLAGRTDVFGKTSLRIWNVTRSDSAIYRCEVVALNDRKEVDEITIELIVQVKPVTPVCRIPAAVPVGKTATLQCQESEGYPRPHYSWYRNDVPLPTDSRANPRFQNSSFHVNSETGTLVFNAVHKDDSGQYYCIASNDAGAARCEGQDMEVYDLN

Experiments:
[1] = tested on: stem cell markers Klf4, Nanog, c-Myc, and Sox2 in ADSCs; assay: Semi-quantitative RT-PCR of stem cell markers in ADSCs cultured on coated dish; assay type: cell-based, murine
From the text: The result was expressed as a relative value based on the value of mIgG defined as 1. Error bar indicates standard deviation. Asterisk(s) indicate the result of the t-test; where * means P<0.05; ** means P<0.01; and *** means P<0.001.
The result was expressed as a relative value with respect to the value of vehicle defined as 1. Error bar indicates standard deviation in three experiments. Asterisk(s) indicate the result of t-test; where * means P<0.05; ** means P<0.01; and *** means P<0.001.
RNA extraction and RT-PCR were performed using a common method previously described (Sugimoto, et al., PLoS One, 2013, 10: e751062013). […] Semi-quantitative PCR was performed using the GoTaq Green Master Mix Kit (Promega) and primers [Sox2 (5′-[…]-3′ (SEQ ID NO: 23), and 5′-[…]-3′ (SEQ ID NO: 24)); c-Myc (5′-[…]-3′ (SEQ ID NO: 25), and 5′-[…]-3′ (SEQ ID NO: 26)); Nanog (5′-[…]-3′ (SEQ ID NO: 27), and 5′-[…]-3′ (SEQ ID NO: 28)); Klf4 (5′-[…]-3′ (SEQ ID NO: 29), and 5′-[…]-3′ (SEQ ID NO: 30)); and Gapdh (5′-[…]-3′ (SEQ ID NO: 31), and 5′-[…]-3′ (SEQ ID NO: 32))] to amplify the target sequences. […] Then the brightness in a region corresponding to the molecular weight of interest was quantified using the ImageJ (National Institute of Health (NIH)) and statistically analyzed.

[2] = tested on: ADSCs (adipose-derived stem cells); assay: Cell proliferation assay, BrdU-positive divided by DAPI-positive cells; assay type: cell-based, murine
Experimental: The result was expressed as a relative value based on the value of mIgG defined as 1. Error bar indicates standard deviation. Asterisk(s) indicate the result of t-test; where * means P<0.05; ** means P<0.01; and *** means P<0.001.
The results are shown relative to the total cell number defined as 1. P-value was calculated by a chi-square test (n=353, n=501).
Cells (4×10^4 cells) were inoculated in a 6-well culture dish, and, 24 hours later, treated with 5-bromo-2′-deoxyuridine (BrdU; #B-5002, Sigma-Aldrich) at the final concentration of 10 μM for 2 hours, and then fixed with 4% PFA. Then, the sample was stained according to the method recommended by the manufacturer, and imaged with a fluorescent phase-contrast microscope (OLYMPUS IX71, Olympus Corporation) and a DP Controller. The number of BrdU-positive particles was divided by that of DAPI-positive ones to obtain a proliferated cell number.

[3] = tested on: F9 cells expressing JAM-B and JAM-C; assay: Cell adhesion assay, crystal violet staining of adhered F9 cells; assay type: cell-based; details: coating at 286 ng/cm^2 in 96-well dish; 30 min after adding cells; relative to vehicle defined as 1
Experimental: JAM-C D1 (286 ng/cm^2) was added to a 96-well plastic culture dish, then F9 stem cells were added thereto, and after 30 min the number of adhered cells was measured with crystal violet staining, while performing no coating as a negative control, and using type I collagen (1,430 ng/cm^2) and rJAM-C (1,430 ng/cm^2) as positive controls. The cell number was expressed as a relative value based on the value of the vehicle defined as 1. Error bar indicates standard deviation. Asterisk(s) indicate the result of the t-test; where * means P<0.05; and *** means P<0.001.
(§1) For each of recombinant soluble JAM-C (polypeptide obtained by linking the Fc region of human IgG1 to the C-terminus of the extracellular domain (Met 1-Asn 241) of human JAM-C; Sino Biological) and murine IgG (GE Healthcare), 20, 100, or 500 ng volume thereof was diluted in 50 μL PBS and disposed into a 96-well round-bottom plate, which was then left standing at 30° C. for 12 hours. As a positive control, 500 ng of collagen Cellmatrix type I-A (Nitta Gelatin Inc.) was processed in the same manner. […]
After washing twice with PBS, ADSCs were detached using a 0.25% trypsin/1 mM EDTA solution and inoculated to the above plate and cultured in a CO2 incubator at 37° C. for 30 min. […] Finally, 50 μL of 5% SDS was used for lysis, and the absorbance was measured at 560 nm wavelength. […]

[4] = tested on: ADSCs (adipose-derived stem cells); assay: Cell adhesion assay, crystal violet staining of adhered ADSCs; assay type: cell-based; details: coating at 20, 100, and 500 ng per well in 96-well plate; 30 min after adding cells; versus murine IgG control
Experimental: The rJAM-C, or murine IgG (mIgG) as a negative control (both in 20, 100, and 500 ng (57, 286, and 1,430 ng/cm^2, respectively)), and type I collagen (500 ng) as a positive control were added to a 96-well plastic culture dish, and then ADSCs were added. After 30 min, the number of adhered cells was measured by crystal violet staining, and the relative absorbance was measured. The absorbance was expressed by a relative absorbance based on the result of the vehicle defined as 1. Error bar indicates standard deviation. Asterisk(s) indicate the result of t-test; where * means P<0.05; and *** means P<0.001.
as §1
After washing twice with PBS, ADSCs were detached using a 0.25% trypsin/1 mM EDTA solution and inoculated to the above plate and cultured in a CO2 incubator at 37° C. for 30 min. […] Finally, 50 μL of 5% SDS was used for lysis, and the absorbance was measured at 560 nm wavelength.

| Molecule | expression of stem cell markers Nanog, Klf4, Sox2, and c-Myc ([1]; ADSCs in 6-well dish coated at 52 ng/cm^2, relative to vehicle defined as 1) | proliferation ability (BrdU-positive / DAPI-positive cells) ([2]; ADSCs in 6-well dish coated at 52 ng/cm^2, chi-square test) | adhesion of F9 cells (adhered cell number) [3] | adhesion of ADSCs (adherent cell number, relative absorbance) [4] | expression of stem cell markers Klf4, Nanog, c-Myc, and Sox2 ([1]; ADSCs in 12-well dish coated at 132 ng/cm^2, cultured 48 hours, relative to mIgG defined as 1) | proliferation ability (BrdU-positive / DAPI-positive cells) ([2]; ADSCs in 6-well dish coated at 104 ng/cm^2, relative to mIgG defined as 1) |
| --- | --- | --- | --- | --- | --- | --- |
| DPRIEWKKI [JAM-C D1] | significantly increased | significantly increased | significantly increased |  |  |  |
| B1 |  |  |  | significantly increased | significantly increased | about 2 fold |
